# Substitutions are numbered along the chain they refer to.
# T1: w.t. CD27 extracellular domain fragment (Homo sapiens, UniProt P26842)
# T1 construct: made in house; culture supernatant used
# T1 sequence (P26842 21-130): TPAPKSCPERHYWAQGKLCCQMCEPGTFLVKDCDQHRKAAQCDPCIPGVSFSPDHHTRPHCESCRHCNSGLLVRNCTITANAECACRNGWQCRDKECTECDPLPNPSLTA
# T2: human CD70-Fc binding to CD27 on CD4+CD25+ Treg cells (Homo sapiens, UniProt P26842)
# T2 construct: from tissue; host or cells: splenocytes from hCD27+/+ mCD27-/- transgenic mice
# T2 sequence (P26842 20-260): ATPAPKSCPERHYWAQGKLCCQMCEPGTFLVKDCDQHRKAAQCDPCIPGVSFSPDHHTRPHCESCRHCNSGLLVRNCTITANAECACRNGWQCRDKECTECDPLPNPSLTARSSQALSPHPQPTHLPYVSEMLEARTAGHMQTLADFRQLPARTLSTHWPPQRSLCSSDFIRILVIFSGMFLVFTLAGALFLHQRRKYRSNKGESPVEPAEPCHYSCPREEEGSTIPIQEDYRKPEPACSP
# T3: mouse CD27 on splenocytes (gated CD4+CD25+ Treg cells) of w.t. mice (mouse, UniProt P41272 24-250)
# T3 construct: whole, on cells; also called mCD27
# T3 sequence (looked up): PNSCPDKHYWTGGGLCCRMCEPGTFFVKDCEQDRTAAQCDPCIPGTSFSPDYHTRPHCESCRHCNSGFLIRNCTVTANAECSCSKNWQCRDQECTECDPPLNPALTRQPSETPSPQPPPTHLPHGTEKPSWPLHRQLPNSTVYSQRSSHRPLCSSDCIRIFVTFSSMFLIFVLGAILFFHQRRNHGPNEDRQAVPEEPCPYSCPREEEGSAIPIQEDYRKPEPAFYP
# T4: CD27 extracellular domain fragment, amino acid residues 1-110, R87A mutation sequence, fused with a human … (human, UniProt P26842 21-130)
# T4 construct: Used as culture supernatant of transient transfection; also called CD27R87A; mutant CD27 fragment; not shown: human kappa chain at the N-terminus; flag-tag at the C-terminus
# T4 chain: T1 sequence (P26842 21-130) with R87A
# B1: mouse CD70-Fc fusion protein (Fc fusion, UniProt O55237 45-195, looked up)
# chain: SKQQQRLLEHPEPHTAELQLNLTVPRKDPTLRWGAGPALGRSFTHGPELEEGHLRIHQDGLYRLHIQVTLANCSSPGSTLQHRATLAVGICSPAAHGISLLRGRFGQDCTVALQRLTYLVHGDVLCTNLTLPLLPSRNADETFFGVQWICP
# notes: Fluorescence-labeled; also called mCD70-Fc; not shown: Fc part
# B2: varlilumab (antibody, human IgG1, kappa, V domains shown)
# VH: QVQLVESGGGVVQPGRSLRLSCAASGFTFSSYDMHWVRQAPGKGLEWVAVIWYDGSNKYYADSVKGRFTISRDNSKNTLYLQMNSLRAEDTAVYYCARGSGNWGFFDYWGQGTLVTVSS
# VL: DIQMTQSPSSLSASVGDRVTITCRASQGISRWLAWYQQKPEKAPKSLIYAASSLQSGVPSRFSGSGSGTDFTLTISSLQPEDFATYYCQQYNTYPRTFGQGTKVEIKR
# notes: Fully human monoclonal anti-human CD27 antibody; also called 1F5; CDX-1127
# B3: varlimut: a FCD265A mutated mouse IgG1 isotype of varlilumab (antibody, V domains shown)
# VH: B2 VH
# VL: DIQMTQSPSSLSASVGDRVTITCRASQGISRWLAWYQQKPEKAPKSLIYAASSLQSGVPSRFSGSGSGTDFTLTISSLQPEDFATYYCQQYNTYPRTFGQGTKVEIK
# What was measured:
# E.G7 cells = assay: E.G7 tumor model with OT-I T-cell adoptive therapy; assay type: in vivo, mice
# [1] = tested on: CD8, CD4 T-cells and Treg (CD4+Foxp3+); assay: T-cell depletion in spleen and pLNs of human CD27 transgenic mice (flow cytometry); assay type: in vivo
# From the text: Spleens and pLNs were collected 7 days later and processed for flow cytometry analysis.
# The same preparations of splenocytes and pLNs cells as in Example 1 were stained for CD8, CD4 and Foxp3.
# [2] = target: T1, w.t. CD27 extracellular domain fragment; assay: ELISA binding to w.t. CD27 fragment; conditions: serially diluted supernatants
# From the text: CD27 extracellular domain spanning amino acid residue 1-110 w.t. sequence and R87A mutation sequence according to Kabat numbering were cloned into an expression vector fused with a human kappa chain in the N-terminus and a flag-tag in the C-terminus. The CD27 fragments were expressed by transient transfection and quantified by an ELISA measuring concentration of human kappa chain in the culture supernatant.
# WBC subpopulations = assay: Total and differential WBC counts and Treg recovery after conditioning treatment; assay type: in vivo, mice
# CD8 T cells = assay: Ki-67 proliferation of donor and recipient CD8 T cells after varlilumab; assay type: in vivo, mice; conditions: spleen, varlilumab pretreatment
# From the text: (§1) CD8 T cells on day 0. Spleens and pLNs were collected on day 14 and processed for flow cytometry analysis. […] CD8, CD4 and Treg cell counts per μl blood were depicted in FIG. 11C (n=6 mice per group).
# Percentage of ki-67^+ in gated donor origin or recipient origin CD8 T cells in the spleen of the same mice as in FIGS. 11A and 11B were depicted in FIG. 12A. Percentages of Ki-67^+ cells in gated CD8 T cells in the spleen and pLNs of the same mice as in FIG. 11C were depicted in FIG. 12B.
# recipient CD3 T-cells = assay: Recipient T-cell depletion after CD27 Ab pretreatment (flow cytometry); assay type: in vivo, mice; conditions: for recipient CD3 T-cell counts on day 0: compared to isotype control
# Method: Spleens and pLNs were collected from one set of mice on day 0 without cell transfusion and from another set of mice 14 days post intravenous (i.v.) transfusion with 2×10^6 CFSE-labeled w.t. CD8 T-cells for the assessment of recipient cell depletion (FIG. 4A) and donor cell expansion (FIG. 4B). Percentages of recipient CD3 T-cells (CD45.1^+CD45.2^−CD3^+) and donor origin CD8 T-cells (CD45.1^−CD45.2^+CD3^+CD8^+) out of total live cells in spleens and pLNs were determined by flow cytometry and the absolute numbers of donor origin cells were calculated based on total cell counts of spleens and pLNs.
# These mice were bled and then transfused with 2×10^6 CD8 T-cells on day 0. Shown are the percentages of donor origin cells out of total live cells in the spleen and pLNs after 14 days of in vivo expansion (FIG. 10A) and the percentages of CD3 T cells in recipients' blood on day 0 before transfusion (FIG. 10B). Data are from one representative experiment of two performed, n=5 mice per group, *p<0.05, **p<0.01, ***p<0.001 indicating statistical significance compared to isotype control or between groups as specified by the horizontal line.
# as §1
# donor origin CD8 T-cells = assay: In vivo expansion of adoptively transferred donor T-cells in pretreated recipient mice; conditions: for donor CD8 T-cell expansion: 14 days post transfusion
# [3] = target: T2, human CD70-Fc binding to CD27 on CD4+CD25+ Treg cells; assay: hCD70-Fc staining on hCD27+/+mCD27-/- splenocytes preincubated with Ab (ligand blocking); conditions: 10 μg Ab 30 minutes on ice, vs hIgG1 isotype control
# Method: Splenocytes from hCD27^+/+mCD27^−/− mice were incubated with 10 μg Ab as indicated for 30 minutes on ice and then stained with a fluorescently labeled human CD70-Fc fusion protein (0.5 μg) and Abs for cell surface markers. Shown is a histogram of hCD70-Fc staining on gated CD4^+CD25^+ Treg cells.
# [4] = target: T3, mouse CD27 on splenocytes (gated …); assay: flow cytometry, labeled mCD70-Fc (0.5 ug) on gated CD4+CD25+ Treg cells of w.t. mouse splenocytes
# From the text: FMO stands for fluorescence minus one, reflecting background fluorescence on the same gated cells.
# [5] = target: T4, CD27 extracellular domain fragment, …; assay: ELISA, CD27 fragment captured by anti-flag Ab
# [6] = tested on: SIINFEKL-specific IFNγ spots; assay: OVA immunisation ELISPOT (co-stimulatory/agonistic activity); assay type: in vivo; conditions: 5 mg OVA and 50 μg Ab on day 0, spleens 7 days later, hCD27+/-mCD27wt mice
# From the text: (§2) Shown are […]-specific IFNγ spots number per spleen, n=4 or 5 mice per group (FIG. 9C). Data are from one representative experiment of two performed, *p<0.05, ***p<0.001, ****p<0.0001, indicating statistical significance compared to isotype control or between groups as specified by the horizontal line.
# as §2, with “Spleens were collected 7 days later for ELISPOT analysis. Shown” for “Shown”, “n=5” for “n=4 or 5”, “10C).” for “9C).”, “**p<0.01,” for “***p<0.001, ****p<0.0001,”
molecule,measurement,setting,value
SIINFEKL (Ovalbumin peptide; listed as Gallus gallus) [reference compound],long-term survival with or without SIINFEKL peptide injection following OT-I T cell transfer,E.G7 cells; 100 μg i.p. day 8 or 20 μg day 17,no difference in long-term survival
varlilumab: fully human monoclonal IgG1 antibody binding CD27; heavy/light chains SEQ ID NO: 68 and 69,percentage and absolute numbers of Treg in peripheral lymph organs,"[1]; 0.2 mg i.p., 7 days, spleen and pLNs, vs isotype control",reduced
same,"total T-cells (CD8 and CD4), percentage out of total live cells and absolute numbers","[1]; 0.2 mg i.p., spleens and pLNs 7 days later, hCD27+/-mCD27wt mice, vs isotype control",reduced
same,pattern of T-cell deletion among T-cell subsets,[1]; Examples 1 and 2 together,"preferentially on Treg and secondarily on CD4-Th, while the least reduction is on CD8 T-cells"
same,binding to w.t. CD27 fragment (OD450),[2],recognizes w.t. CD27
same,"percentage of Treg cells out of total live cells in blood, spleen and pLNs on day 14",WBC subpopulations; 14 days post cell transfer,remains low
same,total and differential counts of WBC per μl blood on day of adoptive transfer (day 0),"WBC subpopulations; varlilumab 300 μg day -14 and -2, Cy 1 mg and Flu 0.1 mg day -4, -3, -2, hCD27+/+mCD27-/- mice","only depletes T-cells with the most reduction in Treg population and does not attack myeloid cells, B-cells and NK cells"
same,CD8 T-cell proliferation (Ki-67+) donor origin vs recipient origin cells,CD8 T cells; hCD27+/+mCD27-/- mice,significantly higher in donor origin cells
same,CD8 T-cell proliferation (Ki-67+) donor origin vs recipient origin cells,CD8 T cells; hCD27+/+mCD27wt mice,no difference
same,"T cell reduction in the two strains of recipients (CD8, CD4 and Treg counts per μl blood)","recipient CD3 T-cells; 300 μg day 0, blood 14 days later, hCD27+/+mCD27-/- vs hCD27+/+mCD27wt",same extent of T cell reduction
same,recipient CD3 T-cell counts on day 0,recipient CD3 T-cells; 1 dose on day -14,reduced to the same extent
same,recipient CD3 T-cell counts on day 0,recipient CD3 T-cells; 2 doses on day -14 and -2,reduced to the same extent
same,recipient CD3 T-cell counts on day 0,recipient CD3 T-cells; Ab on day -2 only,no significant reduction
same,recipient CD3 T-cell counts by day 14 compared to day 0,recipient CD3 T-cells; Ab on day -14 only,remained the same
same,recipient CD3 T-cell counts by day 14 compared to day 0,recipient CD3 T-cells; varlilumab on day -2 only,further decreased
same,recipient CD3 T-cell counts by day 14 compared to day 0,recipient CD3 T-cells; varlilumab on day -14 and -2,further decreased
same,conditioning effect of one delayed dose alone,"E.G7 cells; 300 μg day 14 only, OT-I day 16, survival",no conditioning effect by itself
same,antitumor efficacy of varlilumab pretreatment followed by OT-I T-cell transfer,"E.G7 cells; 300 μg day -2 and 5, OT-I day 7, tumor growth and survival",stronger antitumor efficacy than varlilumab alone
same,antitumor efficacy of OT-I T-cells compared to hIgG1 isotype control,"E.G7 cells; delayed therapy: 300 μg day 6 and 14, OT-I day 16",enhances antitumor efficacy of OT-I T-cells
same,OT-I T-cells antitumor activity compared to hIgG1 control,"E.G7 cells; varlilumab 300 μg day 7 and 14, or Cy 1 mg and Flu 0.1 mg day 13 and 14, OT-I day 16",facilitates OT-I T-cells antitumor activity
same,effect of one delayed dose combined with Cy and Flu on OT-I T-cells antitumor activity,"E.G7 cells; varlilumab 300 μg day 14 plus Cy 1 mg and Flu 0.1 mg day 13 and 14, survival",synergizes
same,"percentage of donor-origin CD8 T-cells out of total live cells, time course","donor origin CD8 T-cells; 200 μg day -7 and -2, spleens and pLNs day 7, 14 and 21, vs hIgG1",long-lasting accumulation of donor-origin CD8 T-cells
same,transferred cell expansion in recipients lacking CD27 signaling,"donor origin CD8 T-cells; 200 μg days -7 and -2, hCD27+/+mCD27-/- recipients, day 14",remarkable transferred cell expansion
same,expansion of transfused CD8 T-cells compared to 2C2 or varlimut,"donor origin CD8 T-cells; 300 μg days -14 and -2, hCD27+/+mCD27-/- mice, 14 days",greater expansion of transfused CD8 T-cells
same,donor CD8 T-cell expansion,donor origin CD8 T-cells; 300 μg i.p. on day -2 only,minimal expansion
same,donor CD8 T-cell expansion,"donor origin CD8 T-cells; 300 μg i.p. on day -14 and -2, hCD27+/+mCD27-/- mice",greatest expansion
same,donor CD8 T-cell expansion,donor origin CD8 T-cells; 300 μg i.p. on day -14 only,median level of expansion
same,"donor cell expansion (donor origin CD8 T-cells in blood, spleen and pLNs)","donor origin CD8 T-cells; Example 14 regimens, day 14, Cy and Flu vs control mice, varlilumab vs Cy and Flu",further increased
same,CFSE dilution in donor-origin CD8 T-cells,"donor origin CD8 T-cells; pretreatment day -14 and -2, vs hIgG1",enhanced proliferation
same,hCD70-Fc staining on gated CD4+CD25+ Treg cells (ligand blocking),[3],no hCD70 binding detected
B1,binding result,[4],binds
B2,binding result,[5],no binding
B3,depleting activity (percentages of CD3 T cells in recipients' blood on day 0),"recipient CD3 T-cells; 300 μg days -14 and -2, hCD27+/+mCD27-/- mice",no depleting and agonistic activities
same,co-stimulatory / agonistic activity (SIINFEKL-specific IFNγ spots number per spleen),[6],no depleting and agonistic activities
same,hCD70-Fc staining on gated CD4+CD25+ Treg cells (ligand blocking),[3],blocks ligand binding

# Source: patent US20220016168A1, “METHODS OF USING CD27 ANTIBODIES AS CONDITIONING TREATMENT FOR ADOPTIVE CELL THERAPY” (Celldex Therapeutics, Inc., priority 2018, published 2022)
